# Reference: patent US20250276994A1, “CAP ANALOG FOR THE 5'-END OF EUKARYOTIC MESSENGER RNAS” (WESTFÄLISCHE WILHELMS-UNIVERSITÄT, priority 2021, published 2025)
# What was measured:
# [1] = Irradiation of photocleavable 5′-cap analogs, LC-MS (triple quad); type: physicochemical; conditions: 30 seconds, 365 nm (3 W)
# Description: For determination of mass spectra, HPLC—triple-quadrupole mass spectrometry system was used. The system consists of Agilent 1260 Infinity II with dual λ absorbance detector (G7114A) HPLC part and Agilent Ultivo mass spectrometer with JetStream ion source (type of ESI). Column which was used: Agilent Poroshell 120 EC-C18 (3.0×150/2.7 μm). The polar compounds were tested by LC method (eluent 20 mM NH40Ac buffer (pH=6)/CH3CN, gradient 0-30%, column temperature=20° C.).
# Samples of the photocleavable 5′-cap analog of formula (22) were irradiated for 30 seconds with 365 nm (3 W).
# [2] = system: Reticulocyte Lysate; assay: In vitro translation of capped FLuc-mRNA and luminescence measurement; type: biochemical; conditions: capped FLuc-mRNA
# Description: In vitro translation was performed using a eukaryotic cell free protein expression kit from Reticulocyte Lysate (Invitrogen). Experiments were performed in 12.5 μL total volume containing 20 ng of the corresponding FLuc-mRNAs, 50 μM L-methionine and 150 mM potassium acetate. Samples were mixed with 8.5 μL of the reticulocyte lysate and incubated for 90 min at 30° C. Afterwards, 2 μL of the respective translation mix were used in subsequent luminescence measurement. The translation efficiency of the reporter mRNAs was assessed in a luciferase assay using Beetle-juice Luciferase Assay Firefly (pjk). Luciferase activity was determined by adding 50 μL freshly prepared substrate solution to the translation mixture. Luminescence was monitored using a Tecan Infinite® m1000pro microplate reader with an acquisition time of 3 s (duration of signal acquisition).
# The photocleavable 5′-cap analog of formula (7) was used for in vitro transcription to make FLuc mRNA as described above. This was used for in vitro translation and Luminescence measurement as described above. The commercial non-modified cap analog denoted “m^7GpppG” (Jena Bioscience) was used as positive control. Samples were irradiated for 30 seconds. The ApppG capped mRNA, which is not recognized by the translation initiation factor served as negative control, which is substracted from the other samples as it represents background activity. The experiment was performed in quadruplicates. The FLuc-mRNA capped with the photocleavable 5′-cap analog of formula (7) is denoted “ONB”.
# The in vitro translation assay and luminescence measurement was performed as described above using the photocleavable 5′-cap analog of formula (12). The capped mRNA was denoted “DMNB-m^7GpCH2ppG capped FLuc-mRNA”. Samples were irradiated for 30 seconds (365 nm) or 60 seconds (405 nm). The commercial non-modified cap analog denoted “m^7GpppG” (Jena Bioscience) was used as positive control and all other samples were normalized to it. The ApppG capped mRNA, which is not recognized by the translation initiation factor served as negative control, which is substracted from the other samples as it represents background activity. The experiment was performed in triplicates, except *DMNB-m7GpCH2ppG (365 nm) which was a single determination.
# The in vitro translation assay in reticulocyte lysate and luminescence measurement was performed as described above using m^7GpppG capped FLuc-mRNA caged with the photocleavable 5′-cap analog of formulas (22) and (25) (denoted “DMNB m^7GpppG” and “NPOM m^7GpppG”). Samples were irradiated for 30 seconds at 365 nm. The ApppG capped mRNA, which is not recognized by the translation initiation factor served as negative control, which was substracted from the other samples as it represents background activity. The values were normalized to the non-irradiated sample with m^7GpppG capped mRNA (100%). The experiment was performed in triplicates.
# The in vitro translation assay in reticulocyte lysate and luminescence measurement was performed as described above using m^7GpppG capped FLuc-mRNA with modified nucleotides m^5C and N^1methyl-pseudouridine caged with the photocleavable 5′-cap analog of formulas (22) and (25) (denoted “DMNB m^7GpppG mod” and “NPOM m^7GpppG mod”). Samples were irradiated for 30 seconds at 365 nm. The ApppG capped mRNA, which is not recognized by the translation initiation factor served as negative control, which was substracted from the other samples as it represents background activity. The values were normalized to the non-irradiated sample with m^7GpppG capped mRNA (100%). The experiment was performed in triplicates.
# [3] = target: T1, T7 RNA polymerase (Escherichia phage T7, UniProt P00573); assay: In vitro transcription of GLuc mRNA with cap analogs, gel analysis; type: biochemical
# T1 construct: purchased Thermo Scientific
# T1 sequence (P00573 whole entry): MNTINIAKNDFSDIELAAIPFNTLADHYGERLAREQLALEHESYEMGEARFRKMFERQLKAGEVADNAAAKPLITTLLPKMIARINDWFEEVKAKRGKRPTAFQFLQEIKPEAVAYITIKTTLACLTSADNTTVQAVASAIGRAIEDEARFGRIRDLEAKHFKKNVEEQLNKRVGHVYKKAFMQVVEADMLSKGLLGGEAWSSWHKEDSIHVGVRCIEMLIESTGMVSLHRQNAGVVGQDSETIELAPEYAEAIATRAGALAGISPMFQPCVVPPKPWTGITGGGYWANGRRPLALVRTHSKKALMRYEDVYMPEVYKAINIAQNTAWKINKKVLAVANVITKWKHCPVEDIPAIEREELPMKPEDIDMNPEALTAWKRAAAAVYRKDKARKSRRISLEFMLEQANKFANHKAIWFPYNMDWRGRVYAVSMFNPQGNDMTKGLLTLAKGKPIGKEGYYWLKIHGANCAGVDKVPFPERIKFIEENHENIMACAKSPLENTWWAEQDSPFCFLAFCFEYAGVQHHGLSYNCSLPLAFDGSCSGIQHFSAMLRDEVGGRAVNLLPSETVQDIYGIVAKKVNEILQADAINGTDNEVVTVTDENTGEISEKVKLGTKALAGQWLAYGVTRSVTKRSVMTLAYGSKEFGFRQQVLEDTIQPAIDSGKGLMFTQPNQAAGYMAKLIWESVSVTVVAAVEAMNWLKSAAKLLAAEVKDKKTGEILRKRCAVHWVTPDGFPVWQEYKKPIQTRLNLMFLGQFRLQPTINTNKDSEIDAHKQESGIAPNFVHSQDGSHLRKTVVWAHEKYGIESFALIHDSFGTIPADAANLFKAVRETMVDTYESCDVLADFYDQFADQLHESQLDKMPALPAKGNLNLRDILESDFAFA
# Description: First, the DNA sequence coding for eGFP, Firefly luciferase (FLuc) or Gaussia luciferase (GLuc) mRNAs were amplified from pmRNA-vectors containing the respective sequence. After purification (NucleoSpin Gel and PCR Clean-up, Macherey-Nagel), the resulting linear dsDNA was used as template (200 ng) for in vitro T7 transcription performed in transcription buffer (40 mM Tris/HCl, 25 mM NaCl, 8 mM MgCl2, 2 mM spermidine(HCl)3) by adding either a A/C/UTP (0.5 mM) mix or a mix with modified nucleotides (A/m^5C/N^1-methylpseudo-UTP) (0.5 mM), GTP (0.25 mM), GpppG, m7GpppG, ApppG, DMNB or NPOM cap analog (1 mM), T7 RNA polymerase (50 U) (Thermo Scientific) and pyrophosphatase (0.1 U) (Thermo Scientific) for 4 h at 37° C. Remaining DNA template was digested in presence of 2 U DNase I for 1 h at 37° C. and then mRNAs were purified using the RNA Clean & Concentrator™-5 Kit (Zymo Research). To digest non-capped RNAs, 10 U of the RNA 5′-polyphosphatase (Epicentre) as well as the supplied reaction buffer were added to purified mRNAs. After an incubation period of 30 min at 37° C., 0.5 U of the 5′-3′ exoribonuclease XRN1 (NEB) and MgCl2 (5 mM) were added. The reaction mixture was incubated for 60 min at 37° C. Subsequently, capped mRNAs were purified using the RNA Clean & Concentrator™-5 Kit (Zymo Research).
# The photocleavable 5′-cap analogs of formulas (12) and (18) were used for in vitro transcription of GLuc mRNA as described above and analysed via agarose gel electrophoresis.
# “M” denotes Riboruler low range RNA ladder.
structure (smiles),measurement,setting,value
"COc1cc(COC(=O)Nc2nc3c(c(=O)[nH]2)[n+](C)cn3[C@@H]2O[C@H](COP(=O)(O)CP(=O)(O)OP(=O)(O)OC[C@H]3O[C@@H](n4cnc5c(=O)[nH]c(N)nc54)C(O)C3O)C(O)C2O)c([N+](=O)[O-])cc1OC (stereo partly shown) [compound 12, P1-(N^2-(4,5-Dimethoxy-2-nitrobenzyl)oxycarbonyl-7-methylguanosin-5′-yl)-P3-guanosin-5′-yl 1,2-methylenetriphosphate]",uncaging of the cap after irradiation (LC-MS),[1],partially uncaged
same,in vitro translation (luminescence) after irradiation,[2]; 30 seconds (365 nm) or 60 seconds (405 nm),partially restored
same,"in vitro translation (luminescence), non-irradiated","[2]; non-irradiated, normalized to m^7GpppG capped mRNA",successfully inhibited to a high degree
same,incorporation of cap analog into RNA,[3],incorporated into the RNA
